{"source": "ChEMBL document CHEMBL1126510", "about": "“Synthesis of D-3-deoxy-3-phosphonomethyl-myo-inositol and its dimethyl ester - compounds of use in studying the ptdins-3-kinase signalling pathway” (Bioorg Med Chem Lett, 1993)", "conditions_in_all_cases": "Mus musculus", "key": {"[1]": {"system": "NIH3T3", "test": "Inhibitory activity against growth of wild type NIH 3T3 cells at 1 mM", "type": "functional"}, "[2]": {"system": "NIH3T3", "test": "Inhibitory activity against growth of vis-sis transformed NIH 3T3 cells at 1 mM; IA means inactive", "type": "functional, cell-based"}, "[3]": {"system": "NIH3T3", "test": "Inhibitory concentration against growth of vis-sis transformed NIH 3T3 cells at 1 mM; IA means inactive", "type": "functional, cell-based"}, "[4]": {"system": "NIH3T3", "test": "Inhibitory activity against growth of wild type NIH 3T3 cells at 1 mM; IA means inactive", "type": "functional, cell-based"}, "[5]": {"system": "NIH3T3", "test": "Inhibitory concentration against growth of vis-sis transformed NIH 3T3 cells with inositol", "type": "functional, cell-based"}, "[6]": {"system": "NIH3T3", "test": "Inhibitory concentration against growth of vis-sis transformed NIH 3T3 cells without inositol", "type": "functional, cell-based"}, "[7]": {"system": "NIH3T3", "test": "Inhibitory concentration against growth of wild type NIH 3T3 cells with inositol", "type": "functional, cell-based"}, "[8]": {"system": "NIH3T3", "test": "Inhibitory concentration against growth of wild type NIH 3T3 cells without inositol", "type": "functional, cell-based"}}, "note": "Activity calls are given as the source filed them. The calls are words filed in the database; no cut-off is given here."}
{"smiles": "O=P(O)(O)CC1C(O)[C@H](O)C(O)[C@@H](O)C1O", "note": "(some centres undefined)", "values": [{"measurement": "inhibition at 1000 µM", "setting": "[1]", "result": 30, "unit": "%"}, {"measurement": "inhibition", "setting": "[2]", "result": "inactive"}]}
{"smiles": "C=C1C(O)[C@H](O)C(O)[C@@H](O)C1O", "note": "(some centres undefined)", "values": [{"measurement": "inhibition", "setting": "[3]", "result": "inactive"}, {"measurement": "inhibition", "setting": "[4]", "result": "inactive"}]}
{"smiles": "COP(=O)(CC1C(O)[C@H](O)C(O)[C@@H](O)C1O)OC", "note": "(some centres undefined)", "values": [{"measurement": "inhibition at 1000 µM", "setting": "[1]", "result": 30, "unit": "%"}, {"measurement": "inhibition", "setting": "[2]", "result": "inactive"}]}
{"smiles": "OC1C(O)C(O)C(CI)C(O)C1O", "note": "(centres undefined)", "values": [{"measurement": "IC50", "setting": "[5]", "result": 56.2, "unit": "mM"}, {"measurement": "IC50", "setting": "[6]", "result": 19.9, "unit": "mM"}, {"measurement": "IC50", "setting": "[7]", "result": 43, "unit": "mM"}, {"measurement": "IC50", "setting": "[8]", "result": 23.8, "unit": "mM"}]}
{"smiles": "OCC1C(O)C(O)C(O)C(O)C1O", "note": "(centres undefined)", "values": [{"measurement": "IC50", "setting": "[5]", "result": 5.5, "unit": "mM"}, {"measurement": "IC50", "setting": "[6]", "result": 10, "unit": "mM"}, {"measurement": "IC50", "setting": "[7]", "result": 4.3, "unit": "mM"}, {"measurement": "IC50", "setting": "[8]", "result": 23.8, "unit": "mM"}]}
